From patent US20260027068A1, “METHODS OF ADM[…]-KETAMINE” (Perception Neuroscience, Inc., priority 2022, published 2026)

Experiments:
subjects with TRD [1] = assay: Modified Observer's Assessment of Alertness/Sedation (MOAA/S)
Experimental: (§1) The Investigational Medicinal Product (IMP) R(−)-ketamine hydrochloride in sterile water for intravenous injection was investigated as an […] treatment of TRD. The International Union of Pure and Applied Chemistry (IUPAC) name is of the IMP is (2R)-2-(2-chlorophenyl)-2-(methylamino)cyclohexan-1-one. Subjects received the solution at either 30 mg or 60 mg dose, or a placebo. The IMP or placebo was administered on Day 1 as a single IV infusion via an electronic infusion pump over 40 minutes. The duration of study participation for each subject was up to 29 days including a screening period, a 3-day in-clinic visit, and 2 follow-up visits. 101 subjects were enrolled in approximately 20 study centers in the EU and the US.
The MOAA/S will were to determine if R(−)-ketamine causes the side effect of sedation and to what degree. Sedation was evaluated by the study staff using the MOAA/S. The observer recorded the subject's alertness pre-dose, every 20 minutes for first 2 hours post-dose, and at 4 and 6 hours after the start of the infusion.

subjects with TRD [2] = assay: Clinician-Administered Dissociative States Scale (CADSS)
Experimental: as §1
The CADSS was to assess the alertness or dissociative state of subjects administered R(−)-ketamine. The study staff evaluated the subject's degree of dissociation by administering the CADSS questionnaire pre-dose; at 40 minutes post-dose (at EoI); and at 2 and 4 hours post-dose.

CN[C@@]1(c2ccccc2Cl)CCCCC1=O.Cl [R(−)-ketamine, (2R)-2-(2-chlorophenyl)-2-(methylamino)cyclohexan-1-one]
Subjects with post-baseline MOASS <5, number (subjects with TRD [1]; 30 mg (n = 33)): 9 n
Subjects with post-baseline MOASS <5, percent (subjects with TRD [1]; 30 mg (n = 33)): (27.3) %
Subjects with post-baseline MOASS <5, number (subjects with TRD [1]; 60 mg (n = 35)): 12 n
Subjects with post-baseline MOASS <5, percent (subjects with TRD [1]; 60 mg (n = 35)): (34.3) %
Subjects with post-baseline CADSS >4 and change from baseline >0, number (subjects with TRD [2]; 30 mg (n = 33)): 12 n
Subjects with post-baseline CADSS >4 and change from baseline >0, percent (subjects with TRD [2]; 30 mg (n = 33)): (36.4) %
Subjects with post-baseline CADSS >4 and change from baseline >0, number (subjects with TRD [2]; 60 mg (n = 35)): 8 n
Subjects with post-baseline CADSS >4 and change from baseline >0, percent (subjects with TRD [2]; 60 mg (n = 35)): (22.9) %
